Measured values from US7329644B2, “Preparation and use of cyclic and branched peptides and their labelled derivatives as therapeutic agents, cholecystokinin agonists or antagonists, and diagnostic agents to identify and locate tumours” (Bracco Imaging S.p.A., priority 2001, dated 2008).
Where two headings read alike, the source gives them in different places. Where a SMILES comes first, the peptide text is derived from it. Bridges are numbered along the chain shown (N, C = ends). [ ]: non-standard residue; d: D form. Dap = NC[C@H](N)C(=O)O

How the values were obtained:
[1] = molecular target: T1, fragment 1-47 of type A cholecystokinin receptor, CCKA-R(1-47) (Homo sapiens, UniProt P32238); assay: Fluorescence spectroscopy binding to receptor fragment CCKA-R(1-47)
T1 construct: Fragment 1-47 of type A receptor, CCKA-R(1-47), and the compound of formula (IV), both synthesised by solid-phase peptide synthesis methods, were used; made in house; host or cells: chemical solid-phase peptide synthesis (no expression host)
T1 sequence (P32238 1-47): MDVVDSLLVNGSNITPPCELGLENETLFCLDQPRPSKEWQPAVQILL
Description: The binding between the compound prepared as described in example 1 and fragment 1-47 of type A cholecystokinin receptor was studied with fluorescence spectroscopy. Although the compound of formula (IV), as it has no sulphate functions on the tyrosine residue, should have greater affinity for type B cholecystokinin receptor, the experiment performed and the results obtained are entirely legitimate, because the receptor fragment used contains no residues (Arg 197) which are known to be responsible for interaction with the sulphate group.
Fragment 1-47 of type A receptor, CCKA-R(1-47), and the compound of formula (IV), both synthesised by solid-phase peptide synthesis methods, were used. Reference should be made to example 1 for the synthesis of compound (IV); for the synthesis of the receptor fragment, see R. Ragone, 47-53, 56, 2001, Biopolymers).
The interaction between receptor fragment CCKA-R(1-47) and compound (IV) was observed by monitoring the tryptophan fluorescence. The emission spectra were recorded at room temperature using a Jasco FP-750 spectrofluorimeter at the excitation wavelength of 296 nm to excite the tryptophan selectively. Small aliquots of a concentrated solution of compound (IV) dissolved in phosphate buffer at pH 7.2 were added to a fixed volume of a solution of CCKA-R(1-47) dissolved in the same solvent, in the presence of a 10 mM solution of sodium dodecylsulphate micelles, used to mimic the cell membrane. […]
Increasing quantities of compound of formula (IV) were added from a concentrated master solution containing 10 mM SDS micelles.
As will be seen in FIG. 2, which exemplifies a typical saturation curve, the fluorescence signal is gradually quenched as a result of the binding. The experiments were performed at various receptor concentrations, and fluorescence quenching was always observed. […] To distinguish the modifications in fluorescence caused by the binding, the contributions to fluorescence of the receptor and peptide isolated were subtracted, and a small variation in fluorescence compared with the value measured was obtained.

[2] = tested on: type A cholecystokinin receptor; assay: Intracellular calcium response in myenteric neurones (confocal microscopy); format: cell-based; conditions: perfusion for 60 seconds
Description: Biological tests have been carried out to confirm the activity of the cyclic compound of formula (IV), using neurone cells which express type A cholecystokinin receptor. […] Both these compounds should show a lower level of activity than the corresponding analogs containing the sulphate group on the tyrosine residue. The biological activity tests involved the use of myenteric neurones as receptor-expressing cells, and the use of a confocal microscope with a suitable software package to measure peptide activity. The tests were based on the following assumptions: • 1) myenteric neurones (of the intestinal wall) normally express type A CCK receptor • 2) binding between CCK and the receptor induces excitation of the cell (change in membrane potential), which can be recorded with electrophysiology studies • 3) the cell excitation is coupled to the passage of calcium from the outside to the inside of the cell through specific membrane channels • 4) if the calcium is rendered fluorescent (using calcium chelators which modify the emission wavelength if they are excited at a particular wavelength), the increased concentration of the intracellular calcium in response to a stimulus can be recorded • 5) confocal laser microscopy with the aid of specific software therefore enables these phenomena to be recorded, and the fluorescence to be converted into the intracellular calcium concentration.

Compound | Kd ([1]; experiments at various receptor concentrations, read-out: Kd range estimated by fitting procedures) [µM] | Kd ([1]; experiments at various receptor concentrations, standard deviation ±27 nM, read-out: Kd mean) [µM] | Kd ([1]; receptor concentration 2.6 μM, 10 mM phosphate buffer pH 7.2, 10 mM SDS micelles, fluorescence at 335 nm, read-out: Kd (binding curve of FIG. 2)) [µM] | intracellular calcium concentration [2]
CSCC[C@@H]1NC(=O)[C@H](Cc2c[nH]c3ccccc23)NC(=O)[C@@H](NC(=O)[C@H](CCSC)NC(=O)[C@H](Cc2ccc(O)cc2)NC(=O)[C@@H](N)CC(=O)O)CNC(=O)[C@H](CCCCN)NC(=O)[C@H](Cc2ccccc2)NC(=O)[C@H](CC(=O)O)NC1=O [(IV)] (H-DYM[Dap]WMDFK; lactam 4-C) | 0.05 to 0.2 | 0.12 | 0.255 | 
Asp-Tyr-Met-Gly-Trp-Met-Asp-Phe-amide [CCK8] |  |  |  | induce an increase in the intracellular calcium concentration
